Consider 12 compounds from patent publication US11420966B2 (ACLARIS THERAPEUTICS, INC., priority 2019, dated 2022).

In experiment [1] the test system is IFNγ stimulated STAT1 phosphorylation on Tyr701 (JAK1/2). Kind of experiment: JAK1/2 cellular target modulation: IFNγ stimulated phospho-STAT1 in PBMC. The conditions noted are these: human PBMC, IFNγ 10 ng/ml; read-out: Infγ-STAT1 IC50. In kind it is cell-based. The source says: (§1) JAK Cellular Target Modulation Assays
(§2) Target modulation was based upon the ability of a compound to inhibit JAK isoform specific phosphorylation of selected substrates. IL-2 stimulated STAT5 phosphorylation on Tyr694 was used to assess JAK1/3 compound selectivity. GM-CSF stimulated STAT5 phosphorylation on Tyr694 was used to assess JAK2 compound selectivity. IFNγ stimulated STAT1 phosphorylation on Tyr701 was used to assess JAK1/2 compound selectivity. IL-12 stimulated STAT4 phosphorylation on Tyr693 was used to assess JAK2/TYK2 compound selectivity. For all four assays, human PBMC from frozen stocks were thawed, pelleted, resuspended in complete media (90% RPMI, 10% heat inactivated FBS, 10 mM HEPES, 47 μM 2-ME, pen/strep) and placed in wells of a 96 well V-bottom plate at 200,000 per well in 120 μl complete media. Compounds were added as 15 μl per well of 10× working stock solutions in complete media with 1% DMSO (or medium with 1% DMSO for controls) and placed on a plate shaker in a 37° C. incubator with 5% CO2 for 1 hour with gentle shaking (setting of 3). Stimulation used the addition of soluble cytokines. For the JAK1/3 phospho-STAT5 assay, 15 μl of 10× working stock recombinant human IL-2 was added to a final concentration of 25 ng/ml. For the JAK2 phospho-STAT5 assay, 15 μl of 10× working stock recombinant human GM-CSF was added to a final concentration of 5 ng/ml. For the JAK1/2 phospho-STAT1 assay, 15 μl of 10× working stock of recombinant human IFNγ was added to a final concentration of 10 ng/ml. For the JAK2/TYK2 phospho-STAT4 assay, 15 μl of 10× working stock of recombinant human IL-12 was added to a final concentration of 1.7 ng/ml. Plates were then placed back on the plate shaker in the incubator for an additional 5, 5, 10, and 25 minutes respectively upon which the plates were removed from the incubator, sealed with a plate sealer and the cells pelleted at 400×g for 5 minutes. After pelleting, the media was removed by aspiration and the cells were lysed in assay specific cell lysis buffer. The levels of phospho-STATS were determined using a Phospho (Tyr694) STAT5a,b Whole Cell Lysate kit from Meso Scale Discovery. Levels of phospho-STAT1 were determined using a CST-PathScan Phospho-STAT1 (Tyr701) Sandwich ELISA kit. Levels of phospho-STAT4 were determined using a Phospho-STAT4 (Tyr693) Whole Cell Lysate kit from Meso Scale Discovery.

For a further experiment, the target named is JAK3 (a.a. 781-1124) (Homo sapiens (Human), UniProt P52333). Put plainly: JAK3 enzyme activity assay (SRCtide phosphorylation, Caliper). In kind it is biochemical. The conditions noted are these: 1 uM ATP; read-out: JAK3 Inhibition IC50. Here is the method:
(§3) JAK1, JAK2, JAK3, and Tyk-2 Enzyme Activity Assays
Kinase reactions were run in a 384-well Greiner plate with 2% final DMSO concentration under the buffer conditions of 20 mM HEPES, pH 7.5, 10 mM MgCl2, 0.01% BSA, and 0.0005% Tween-20. The kinase reaction components were 2.5 nM JAK3, 1 μM SRCtide peptide and 1 uM ATP. Examples were tested in dose-response starting at 2 M (11 concentrations, 3-fold serial dilution, duplicate reactions). The reactions were incubated at room temperature for 40 minutes, then stopped by adding a 1:1 volume of 30 mM EDTA in 20 mM HEPES, pH 7.5 (15 mM EDTA final). After the reaction was stopped, the phosphorylated and unphosphorylated peptides were separated and quantified using a Caliper LC3000/EZ-Reader system and HTS Well Analyzer Software (Caliper, A PerkinElmer Company, Hopkinton, Mass.). GraFit (Erithacus Software Ltd., Horley, U.K.) was used to calculate inhibitor potency by fitting dose-response data to the 4-parameter logistical IC50 equation.

A further experiment deals with JAK1 (Homo sapiens (Human), UniProt P23458). Kind of experiment: JAK1 enzyme activity assay (Thermo Fisher SelectScreen, Z-lyte). The following applies: read-out: JAK1 Inhibition IC50. It counts as biochemical. Here is the method:
as §3
(§4) The inhibitory potency of candidate compounds of JAK1, JAK2, and Tyk-2 was done at Thermo Fisher Scientific in their Selectscreen using a Z-lyte assay. Following are the assay details for each enzyme.
JAK: The 2×JAK-enzyme/Tyr 06 mixture is prepared in 50 mM HEPES pH 6.5, 0.01% BRIJ-35, 10 mM MgCl2, 1 mM EGTA, 0.02% NaN3. The final 10 μL of the Kinase Reaction consists of 21.2-91.5 ng JAK and 2 M Tyr 06 in 50 mM HEPES pH 7.0, 0.01% BRIJ-35, 10 mM MgCl2, 1 mM EGTA, 0.01% NaN3. After the one hour Kinase Reaction incubation, 5 μL of a 1:128 dilution of Development Reagent is added.
(§5) Data reduction for JAK1, JAK2 and TYK2 is done the same, independent of the enzyme run. In summary, background signal is defined in the absence of enzyme and uninhibited signal is defined in the presence of vehicle (2% DMSO) alone. Compounds were evaluated in an 11 point dose-response ranging from […] to 0.34 nM. IC50 values of compounds are determined using a 4 parameter logistical fit of emission ratio as a function of the concentration of compound.

A further experiment deals with Tyk-2 (Homo sapiens (Human), UniProt P29597). Kind of experiment: Tyk-2 enzyme activity assay (Thermo Fisher SelectScreen, Z-lyte). The conditions noted are these: read-out: Tyk-2 Inhibition IC50. In kind it is biochemical. The procedure: as §3, §4
Sequence of Tyk-2 (P29597 whole entry): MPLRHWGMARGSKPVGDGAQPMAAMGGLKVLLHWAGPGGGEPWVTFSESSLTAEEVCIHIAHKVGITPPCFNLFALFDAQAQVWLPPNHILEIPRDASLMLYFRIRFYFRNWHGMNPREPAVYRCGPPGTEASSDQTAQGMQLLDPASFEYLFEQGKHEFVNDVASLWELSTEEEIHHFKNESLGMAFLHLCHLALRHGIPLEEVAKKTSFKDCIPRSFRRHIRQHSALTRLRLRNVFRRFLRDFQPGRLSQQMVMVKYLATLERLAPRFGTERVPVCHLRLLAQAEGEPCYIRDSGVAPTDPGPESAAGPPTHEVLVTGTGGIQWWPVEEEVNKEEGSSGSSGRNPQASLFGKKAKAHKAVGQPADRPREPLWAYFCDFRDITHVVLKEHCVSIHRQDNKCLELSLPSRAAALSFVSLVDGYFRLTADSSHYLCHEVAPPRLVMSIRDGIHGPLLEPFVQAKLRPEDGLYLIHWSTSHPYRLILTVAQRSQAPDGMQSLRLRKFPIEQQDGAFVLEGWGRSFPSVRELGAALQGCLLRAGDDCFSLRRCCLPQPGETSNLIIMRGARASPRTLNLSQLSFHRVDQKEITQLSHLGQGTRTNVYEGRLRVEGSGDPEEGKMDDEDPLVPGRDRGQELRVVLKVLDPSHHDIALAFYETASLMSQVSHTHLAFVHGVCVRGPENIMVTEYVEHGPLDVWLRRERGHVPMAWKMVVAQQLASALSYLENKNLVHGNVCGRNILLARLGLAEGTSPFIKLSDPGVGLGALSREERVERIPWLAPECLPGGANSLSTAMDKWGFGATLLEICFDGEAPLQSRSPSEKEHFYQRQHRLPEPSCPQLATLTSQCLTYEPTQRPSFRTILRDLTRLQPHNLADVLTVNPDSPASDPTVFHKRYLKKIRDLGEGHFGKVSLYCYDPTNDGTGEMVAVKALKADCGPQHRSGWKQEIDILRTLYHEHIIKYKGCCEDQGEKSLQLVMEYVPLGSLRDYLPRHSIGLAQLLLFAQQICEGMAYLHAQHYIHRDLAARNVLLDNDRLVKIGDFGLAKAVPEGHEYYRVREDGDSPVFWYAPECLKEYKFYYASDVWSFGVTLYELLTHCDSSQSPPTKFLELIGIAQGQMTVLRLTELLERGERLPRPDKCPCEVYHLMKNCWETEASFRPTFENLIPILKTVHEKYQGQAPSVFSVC
TYK2: The 2×TYK2/Tyr 03 mixture is prepared in 50 mM HEPES pH 6.5, 0.01% BRIJ-35, 10 mM MgCl2, 1 mM EGTA, 0.02% NaN3. The final 10 μL Kinase Reaction consists of 3.75-15 ng TYK2 and 2 M Tyr 03 in 50 mM HEPES pH 7.0, 0.01% BRIJ-35, 10 mM MgCl2, 1 mM EGTA, 0.01% NaN3. After the one hour KinaseReaction incubation, 5 μL of a 1:4096 dilution of Development Reagent A is added.
as §5

Experiment [2] deals with IL-2 stimulated STAT5 phosphorylation on Tyr694 (JAK1/3). Kind of experiment: JAK1/3 cellular target modulation: IL-2 stimulated phospho-STAT5 in PBMC. In kind it is cell-based. The conditions noted are these: human PBMC, IL-2 25 ng/ml; read-out: IL2-STAT5 IC50.
Text: as §1, §2

Another experiment has as its target JAK2 (Homo sapiens (Human), UniProt O60674). Put plainly: JAK2 enzyme activity assay (Thermo Fisher SelectScreen, Z-lyte). In kind it is biochemical. The conditions noted are these: read-out: JAK2 Inhibition IC50. Here is the method:
as §3, §4
JAK2: The 2×JAK2/Tyr 06 mixture is prepared in 50 mM HEPES pH 7.5, 0.01% BRIJ-35, 10 mM MgCl2, 1 mM EGTA. The final 10 μL Kinase Reaction consists of 0.12-0.5 ng JAK2 and 2 M Tyr 06 in 50 mM HEPES pH 7.5, 0.01% BRIJ-35, 10 mM MgCl2, 1 mM EGTA. After the one hour Kinase Reaction incubation, 5 μL of a 1:128 dilution of Development Reagent A is added.
as §5

Molecules are shown by their SMILES.

Sequence of JAK2 (O60674 whole entry): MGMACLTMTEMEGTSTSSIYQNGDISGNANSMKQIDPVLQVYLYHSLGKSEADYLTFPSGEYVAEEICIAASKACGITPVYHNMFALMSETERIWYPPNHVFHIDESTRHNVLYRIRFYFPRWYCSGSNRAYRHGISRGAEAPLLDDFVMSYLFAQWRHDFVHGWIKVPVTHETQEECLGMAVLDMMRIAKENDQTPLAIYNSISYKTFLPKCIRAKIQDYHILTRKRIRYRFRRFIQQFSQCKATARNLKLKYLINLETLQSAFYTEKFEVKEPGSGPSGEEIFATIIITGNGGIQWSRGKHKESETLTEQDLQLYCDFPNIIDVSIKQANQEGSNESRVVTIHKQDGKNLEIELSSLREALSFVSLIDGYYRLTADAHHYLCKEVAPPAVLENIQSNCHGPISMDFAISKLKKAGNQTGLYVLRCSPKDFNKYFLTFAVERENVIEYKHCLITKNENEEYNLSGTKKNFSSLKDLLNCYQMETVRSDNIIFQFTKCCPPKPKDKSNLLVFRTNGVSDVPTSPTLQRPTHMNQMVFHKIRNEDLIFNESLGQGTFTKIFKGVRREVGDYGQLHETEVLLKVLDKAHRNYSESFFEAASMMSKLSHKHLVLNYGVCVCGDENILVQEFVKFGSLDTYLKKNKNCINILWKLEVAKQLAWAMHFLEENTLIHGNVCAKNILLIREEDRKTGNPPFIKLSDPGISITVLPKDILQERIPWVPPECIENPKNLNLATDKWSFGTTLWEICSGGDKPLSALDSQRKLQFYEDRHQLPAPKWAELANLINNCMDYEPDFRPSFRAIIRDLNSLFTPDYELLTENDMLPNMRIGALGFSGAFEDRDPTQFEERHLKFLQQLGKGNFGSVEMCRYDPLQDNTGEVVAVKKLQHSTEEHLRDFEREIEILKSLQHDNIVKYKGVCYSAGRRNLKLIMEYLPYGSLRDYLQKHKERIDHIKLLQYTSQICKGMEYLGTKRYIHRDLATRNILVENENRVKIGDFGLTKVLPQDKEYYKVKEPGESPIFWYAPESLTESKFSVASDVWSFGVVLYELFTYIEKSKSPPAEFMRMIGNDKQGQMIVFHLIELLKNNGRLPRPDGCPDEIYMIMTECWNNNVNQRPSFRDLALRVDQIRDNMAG
Sequence of JAK3 (a.a. 781-1124) (P52333 781-1124): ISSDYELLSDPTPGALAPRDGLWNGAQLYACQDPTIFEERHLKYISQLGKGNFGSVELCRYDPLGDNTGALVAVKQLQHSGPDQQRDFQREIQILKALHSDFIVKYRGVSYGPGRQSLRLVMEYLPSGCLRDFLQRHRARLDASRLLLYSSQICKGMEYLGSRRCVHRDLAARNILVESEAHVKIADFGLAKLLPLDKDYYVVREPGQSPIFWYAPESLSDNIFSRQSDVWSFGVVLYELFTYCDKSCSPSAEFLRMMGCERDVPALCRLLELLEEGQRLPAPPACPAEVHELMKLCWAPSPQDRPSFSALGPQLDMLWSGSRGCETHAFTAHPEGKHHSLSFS
Sequence of JAK1 (P23458 whole entry): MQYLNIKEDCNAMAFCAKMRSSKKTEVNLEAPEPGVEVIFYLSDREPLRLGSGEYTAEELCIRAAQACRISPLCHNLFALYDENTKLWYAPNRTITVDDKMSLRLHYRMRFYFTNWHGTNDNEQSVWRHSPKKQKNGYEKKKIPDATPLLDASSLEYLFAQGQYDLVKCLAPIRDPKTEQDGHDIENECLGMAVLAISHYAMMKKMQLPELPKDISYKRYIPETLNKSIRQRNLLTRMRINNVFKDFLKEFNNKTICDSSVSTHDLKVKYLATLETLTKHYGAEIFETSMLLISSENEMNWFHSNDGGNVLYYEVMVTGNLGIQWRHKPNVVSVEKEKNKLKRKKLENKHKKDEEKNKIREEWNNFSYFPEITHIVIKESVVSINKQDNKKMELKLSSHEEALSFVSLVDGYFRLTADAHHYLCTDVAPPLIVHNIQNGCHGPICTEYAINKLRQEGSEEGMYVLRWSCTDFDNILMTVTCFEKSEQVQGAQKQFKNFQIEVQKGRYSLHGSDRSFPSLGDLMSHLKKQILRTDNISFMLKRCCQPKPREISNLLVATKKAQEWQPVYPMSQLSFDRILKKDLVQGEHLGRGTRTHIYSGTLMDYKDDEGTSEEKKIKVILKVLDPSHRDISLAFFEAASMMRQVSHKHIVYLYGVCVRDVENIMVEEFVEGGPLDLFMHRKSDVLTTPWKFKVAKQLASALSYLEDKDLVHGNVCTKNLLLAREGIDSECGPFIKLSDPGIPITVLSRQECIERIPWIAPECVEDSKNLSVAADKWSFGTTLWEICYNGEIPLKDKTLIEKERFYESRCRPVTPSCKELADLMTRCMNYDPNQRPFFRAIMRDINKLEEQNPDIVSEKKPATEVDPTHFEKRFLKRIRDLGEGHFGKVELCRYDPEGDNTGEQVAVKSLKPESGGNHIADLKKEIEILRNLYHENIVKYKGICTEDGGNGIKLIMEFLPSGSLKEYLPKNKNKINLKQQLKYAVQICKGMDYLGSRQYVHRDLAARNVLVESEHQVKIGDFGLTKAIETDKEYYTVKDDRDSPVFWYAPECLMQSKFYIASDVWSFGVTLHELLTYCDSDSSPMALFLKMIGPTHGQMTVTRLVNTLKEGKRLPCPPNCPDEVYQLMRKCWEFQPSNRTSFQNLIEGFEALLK

With `N#CCC(=O)N1CCC[C@@H](Nc2c(-c3cscn3)cnc3[nH]ccc23)C1` [Example 1, (R)-3-oxo-3-(3-((5-(thiazol-4-yl)-1H-pyrrolo[2,3-b]pyridin-4-yl)amino)piperidin-1-yl)propanenitrile], the IC50 (as a rule, the midpoint of a concentration-inhibition curve) in experiment [1] was in the range of 100 to 1000 nM; on JAK3 (a.a. 781-1124), 10 to 100 nM; on JAK1 it was 10 to 100 nM; on Tyk-2 it was 10 to 100 nM; in experiment [2], 100 to 1000 nM; on JAK2, 10 to 100 nM.
`CNC(=O)c1coc(-c2cnc3[nH]ccc3c2N[C@H]2C[C@@H](C)CN(C(=O)CC#N)C2)n1` [Example 32, 2-(4-(((3S,5R)-1-(2-cyanoacetyl)-5-methylpiperidin-3-yl)amino)-1H-pyrrolo[2,3-b]pyridin-5-yl)-N-methyloxazole-4-carboxamide]: the IC50 on JAK3 (a.a. 781-1124) was 10 to 100 nM; on JAK1, 100 to 1000 nM; at Tyk-2, 100 to 1000 nM; in experiment [2], above 1000 nM; at JAK2, 100 to 1000 nM.
In the case of `CN(C(=O)CC#N)C1CCN(c2nccc(-c3cnc4[nH]ccc4c3N[C@@H]3CCCN(C(=O)CC#N)C3)n2)C1` (stereo partly drawn) [Example 50, 2-cyano-N-(1-(4-(4-(((R)-1-(2-cyanoacetyl)piperidin-3-yl)amino)-1H-pyrrolo[2,3-b]pyridin-5-yl)pyrimidin-2-yl)pyrrolidin-3-yl)-N-methylacetamide], the IC50 was at most 10 nM at JAK3 (a.a. 781-1124); at most 10 nM on JAK1; 10 to 100 nM at Tyk-2; above 1000 nM in experiment [2]; 10 to 100 nM at JAK2.
Take `CNC(=O)c1ccnc(-c2cnc3[nH]ccc3c2N[C@@H]2CCCN(C(=O)CC#N)C2)c1` [Example 61, (R)-2-(4-((1-(2-cyanoacetyl)piperidin-3-yl)amino)-1H-pyrrolo[2,3-b]pyridin-5-yl)-N-methylisonicotinamide]: the IC50 on JAK3 (a.a. 781-1124) was 10 to 100 nM; at JAK1, 10 to 100 nM; on Tyk-2 it was 100 to 1000 nM; in experiment [2], above 1000 nM; on JAK2, 10 to 100 nM.
Take `C[C@@H]1C[C@H](Nc2c(-c3ccncn3)cnc3[nH]ccc23)CN(C(=O)CC#N)C1` [Example 57, 3-((3R,5S)-3-methyl-5-((5-(pyrimidin-4-yl)-1H-pyrrolo[2,3-b]pyridin-4-yl)amino)piperidin-1-yl)-3-oxopropanenitrile]: the IC50 at JAK3 (a.a. 781-1124) is 10 to 100 nM; on JAK1, 100 to 1000 nM; at Tyk-2, 100 to 1000 nM; in experiment [2], above 1000 nM; on JAK2 it was 100 to 1000 nM.
As to `CN(C)S(=O)(=O)Nc1ccnc(-c2cnc3[nH]ccc3c2N[C@@H]2CCCN(C(=O)CC#N)C2)c1` [Example 54, (R)-N-(2-(4-((1-(2-cyanoacetyl)piperidin-3-yl)amino)-1H-pyrrolo[2,3-b]pyridin-5-yl)pyridin-4-yl)N,N-dimethyl sulfuric diamide], the IC50 on JAK3 (a.a. 781-1124) was 100 to 1000 nM; on JAK1, 10 to 100 nM; at Tyk-2 it was 100 to 1000 nM; in experiment [2] it was above 1000 nM; at JAK2, 10 to 100 nM.
Consider `N#CCC(=O)N1CCC[C@@H](Nc2c(-c3nncs3)cnc3[nH]ccc23)C1` [Example 8, (R)-3-(3-((5-(1,3,4-thiadiazol-2-yl)-1H-pyrrolo[2,3-b]pyridin-4-yl)amino)piperidin-1-yl)-3-oxopropanenitrile], for which the IC50 at JAK1 was at most 10 nM.
Consider `Cn1ccnc1-c1cnc2[nH]ccc2c1N[C@@H]1CCCN(C(=O)CC#N)C1` [Example 17, (R)-3-(3-((5-(1-methyl-1H-imidazol-2-yl)-1H-pyrrolo[2,3-b]pyridin-4-yl)amino)piperidin-1-yl)-3-oxopropanenitrile], for which the IC50 (at JAK3 (a.a. 781-1124); at JAK1; at Tyk-2; in experiment [2]; at JAK2) was above 1000 nM in each case.
In the case of `N#CCC(=O)N1CCC[C@@H](Nc2c(-c3ccncn3)cnc3[nH]ccc23)C1` [Example 24, (R)-3-oxo-3-(3-((5-(pyrimidin-4-yl)-1H-pyrrolo[2,3-b]pyridin-4-yl)amino)piperidin-1-yl)propanenitrile], the IC50 at JAK3 (a.a. 781-1124), at JAK1 and on Tyk-2 was at most 10 nM in each case.
For the compound `Cc1ccnc(-c2cnc3[nH]ccc3c2N[C@@H]2CCCN(C(=O)CC#N)C2)n1` [Example 60], the IC50 on JAK1 is at most 10 nM; at Tyk-2, 10 to 100 nM.
On to `CS(=O)(=O)Nc1ccnc(-c2cnc3[nH]ccc3c2N[C@@H]2CCCN(C(=O)CC#N)C2)c1` [Example 56, (R)-N-(2-(4-((1-(2-cyanoacetyl)piperidin-3-yl)amino)-1H-pyrrolo[2,3-b]pyridin-5-yl)pyridin-4-yl)methanesulfonamide], for which the IC50 is 100 to 1000 nM on JAK3 (a.a. 781-1124); 10 to 100 nM on JAK1; 100 to 1000 nM at Tyk-2; above 1000 nM in experiment [2]; 100 to 1000 nM at JAK2.
As for `C[C@@H]1C[C@H](Nc2c(-c3ncco3)cnc3[nH]ccc23)CN(C(=O)CC#N)C1` (single isomer, unassigned) [Example 9], the IC50 is 10 to 100 nM at JAK3 (a.a. 781-1124); 100 to 1000 nM at JAK1; 100 to 1000 nM on Tyk-2; above 1000 nM in experiment [2]; 100 to 1000 nM on JAK2.
